Measurements: ChEMBL document CHEMBL1201862, “PubChem BioAssay data set” (2004)
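How tested: cells in 96-well plates exposed to compound for 48 hours at five concentrations. GI50 is the concentration that inhibits growth by half.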 The source made the active and inactive calls. Rule as the data show it: active = GI50 up to about 1.1 µM and inactive = higher.

How the values were obtained:
Experiment in all cases: NCI-60 cell line screen, 48 h
EKVX = test system: EKVX
CAKI-1 = test system: CAKI-1
COLO 205 = test system: COLO 205
UACC-62 = test system: UACC-62
TK-10 = test system: TK-10
LOX IMVI = test system: LOX IMVI
SK-MEL-2 = test system: SK-MEL-2
MDA-MB-435 = test system: MDA-MB-435
HT-29 = test system: HT-29
NCI-H226 = test system: NCI-H226
MDA-N = test system: MDA-N
HL-60 = test system: HL-60
IGROV-1 = test system: IGROV-1
NCI-H522 = test system: NCI-H522
OVCAR-8 = test system: OVCAR-8
SF-268 = test system: SF-268
BT-549 = test system: BT-549
OVCAR-3 = test system: OVCAR-3
DU-145 = test system: DU-145
HCC 2998 = test system: HCC 2998

SMILES	GI50 (EKVX)	GI50 (CAKI-1)	GI50 (COLO 205)	GI50 (UACC-62)	GI50 (TK-10)	GI50 (LOX IMVI)	GI50 (SK-MEL-2)	GI50 (MDA-MB-435)	GI50 (HT-29)	GI50 (NCI-H226)	GI50 (MDA-N)	GI50 (HL-60)	GI50 (IGROV-1)	GI50 (NCI-H522)	GI50 (OVCAR-8)	GI50 (SF-268)	GI50 (BT-549)	GI50 (OVCAR-3)	GI50 (DU-145)	GI50 (HCC 2998)
c1ccc(-c2sc(-c3ccccc3)c3c2C2CCC3C2)cc1	42.1 µM (inactive)	49.9 µM (inactive)	22.9 µM (inactive)	33.8 µM (inactive)	27 µM (inactive)	28.8 µM (inactive)	19.2 µM (inactive)	38.6 µM (inactive)	18.6 µM (inactive)	32.5 µM (inactive)	43 µM (inactive)	37.5 µM (inactive)	47.1 µM (inactive)	23.1 µM (inactive)	32.9 µM (inactive)	53.3 µM (inactive)	40.7 µM (inactive)	30.6 µM (inactive)	> 100 µM (inactive)	–
CC1(c2ccc(F)cc2)CC(c2ccc(F)cc2)=C(C#N)C(=C(C#N)C#N)N1 (stereo not given)	17 µM (inactive)	16 µM (inactive)	5.56 µM (inactive)	14.3 µM (inactive)	18.1 µM (inactive)	18.6 µM (inactive)	16 µM (inactive)	16.6 µM (inactive)	15.4 µM (inactive)	21.2 µM (inactive)	17.4 µM (inactive)	6.31 µM (inactive)	17.1 µM (inactive)	–	20.1 µM (inactive)	15.8 µM (inactive)	24.9 µM (inactive)	5.98 µM (inactive)	15.2 µM (inactive)	14.5 µM (inactive)
O=C(c1ccccc1)c1ccc2[nH]c(-c3c(Cl)c(Cl)c(Cl)c(Cl)c3C(=O)N/N=C/c3ccc(Cl)cc3)nc2c1	23.2 µM (inactive)	61.8 µM (inactive)	28.1 µM (inactive)	–	40.1 µM (inactive)	34 µM (inactive)	29.4 µM (inactive)	32.8 µM (inactive)	35.2 µM (inactive)	39.8 µM (inactive)	29.8 µM (inactive)	4.06 µM (inactive)	33 µM (inactive)	19.5 µM (inactive)	51.8 µM (inactive)	40.7 µM (inactive)	33.7 µM (inactive)	17.5 µM (inactive)	56.8 µM (inactive)	–
CSc1nn(C)cc2nc(C)nc1-2	> 100 µM (inactive)	> 100 µM (inactive)	> 100 µM (inactive)	> 100 µM (inactive)	> 100 µM (inactive)	–	> 100 µM (inactive)	> 100 µM (inactive)	> 100 µM (inactive)	> 100 µM (inactive)	> 100 µM (inactive)	> 100 µM (inactive)	> 100 µM (inactive)	–	> 100 µM (inactive)	> 100 µM (inactive)	> 100 µM (inactive)	> 100 µM (inactive)	> 100 µM (inactive)	–
S=C1NC2=C(COc3ccccc32)C(c2ccc(Cl)cc2)N1 (stereo not given)	17.1 µM (inactive)	–	18.7 µM (inactive)	17.4 µM (inactive)	–	16.3 µM (inactive)	15.3 µM (inactive)	24 µM (inactive)	15.5 µM (inactive)	17.6 µM (inactive)	16.4 µM (inactive)	13.9 µM (inactive)	16.6 µM (inactive)	–	21.6 µM (inactive)	17.6 µM (inactive)	21.1 µM (inactive)	15.3 µM (inactive)	19.9 µM (inactive)	–
COc1cc(C(C)=O)cc(C(=O)N(C(C)C)C(C)C)c1[Si](C)(C)C	–	> 100 µM (inactive)	> 100 µM (inactive)	> 100 µM (inactive)	> 100 µM (inactive)	> 100 µM (inactive)	> 100 µM (inactive)	> 100 µM (inactive)	–	> 100 µM (inactive)	> 100 µM (inactive)	24.3 µM (inactive)	> 100 µM (inactive)	34.8 µM (inactive)	> 100 µM (inactive)	> 100 µM (inactive)	> 100 µM (inactive)	> 100 µM (inactive)	> 100 µM (inactive)	–
CC(C)(C)c1cc(C(C)(C)C)c(SSc2c(C(C)(C)C)cc(C(C)(C)C)c(O)c2O)c(O)c1O	16.4 µM (inactive)	11.5 µM (inactive)	11.5 µM (inactive)	5.7 µM (inactive)	–	9.64 µM (inactive)	14.4 µM (inactive)	4.3 µM (inactive)	13.2 µM (inactive)	15 µM (inactive)	10.4 µM (inactive)	3.46 µM (inactive)	12 µM (inactive)	3.92 µM (inactive)	12.3 µM (inactive)	10.1 µM (inactive)	13.8 µM (inactive)	–	–	–
N#CC1C(=O)SC2c3ccccc3C(=O)c3ccccc3C12 (stereo not given)	> 10 µM (inactive)	> 10 µM (inactive)	> 10 µM (inactive)	> 10 µM (inactive)	> 10 µM (inactive)	> 10 µM (inactive)	> 10 µM (inactive)	> 10 µM (inactive)	> 10 µM (inactive)	> 10 µM (inactive)	> 10 µM (inactive)	> 10 µM (inactive)	> 10 µM (inactive)	–	> 10 µM (inactive)	> 10 µM (inactive)	> 10 µM (inactive)	> 10 µM (inactive)	> 10 µM (inactive)	> 10 µM (inactive)
CC1(C)/C(=N\NC(N)=O)C2CCC1C2 (stereo not given)	> 100 µM (inactive)	> 100 µM (inactive)	> 100 µM (inactive)	> 100 µM (inactive)	> 100 µM (inactive)	> 100 µM (inactive)	> 100 µM (inactive)	> 100 µM (inactive)	> 100 µM (inactive)	> 100 µM (inactive)	> 100 µM (inactive)	> 100 µM (inactive)	> 100 µM (inactive)	> 100 µM (inactive)	> 100 µM (inactive)	> 100 µM (inactive)	> 100 µM (inactive)	> 100 µM (inactive)	> 100 µM (inactive)	–
O=C(O)/C=C/c1ccc(Oc2ccccc2C(=O)O)o1	–	> 10 µM (inactive)	> 10 µM (inactive)	> 10 µM (inactive)	> 10 µM (inactive)	> 10 µM (inactive)	–	> 10 µM (inactive)	> 10 µM (inactive)	–	> 10 µM (inactive)	> 10 µM (inactive)	> 10 µM (inactive)	> 10 µM (inactive)	> 10 µM (inactive)	> 10 µM (inactive)	> 10 µM (inactive)	–	> 10 µM (inactive)	> 10 µM (inactive)
CCOC(=O)c1cc(C)nc2c1c(=O)n(-c1ccccc1)c(=O)n2CCCCN1CCN(c2ccccc2)CC1	> 100 µM (inactive)	1.53 µM (inactive)	60 µM (inactive)	70.3 µM (inactive)	> 100 µM (inactive)	61.1 µM (inactive)	64.9 µM (inactive)	> 100 µM (inactive)	36.6 µM (inactive)	> 100 µM (inactive)	–	27 µM (inactive)	> 100 µM (inactive)	87.1 µM (inactive)	> 100 µM (inactive)	> 100 µM (inactive)	> 100 µM (inactive)	–	> 100 µM (inactive)	41.1 µM (inactive)
CC(=O)OCC1OC(n2c(C)c(/N=N/c3ccc(Cl)cc3)c(C)c(C#N)c2=S)C(OC(C)=O)C(OC(C)=O)C1OC(C)=O (stereo not given)	–	50.8 µM (inactive)	> 100 µM (inactive)	38.4 µM (inactive)	40.5 µM (inactive)	86.3 µM (inactive)	34.2 µM (inactive)	> 100 µM (inactive)	> 100 µM (inactive)	–	> 100 µM (inactive)	> 100 µM (inactive)	41.8 µM (inactive)	–	–	27.9 µM (inactive)	15.3 µM (inactive)	> 100 µM (inactive)	73.3 µM (inactive)	> 100 µM (inactive)
O=C(O)C[n+]1cn(NC(=O)Cc2ccccc2)cn1	7.16 µM (inactive)	> 10 µM (inactive)	> 10 µM (inactive)	0.664 µM (active)	> 10 µM (inactive)	> 10 µM (inactive)	–	> 10 µM (inactive)	> 10 µM (inactive)	–	> 10 µM (inactive)	–	> 10 µM (inactive)	> 10 µM (inactive)	> 10 µM (inactive)	> 10 µM (inactive)	> 10 µM (inactive)	> 10 µM (inactive)	> 10 µM (inactive)	> 10 µM (inactive)
C[C@]12CC[C@@H]3c4ccc(OP(=O)(O)O)cc4CC[C@H]3[C@@H]1CCC2=O	42.8 µM (inactive)	> 100 µM (inactive)	> 100 µM (inactive)	66.2 µM (inactive)	> 100 µM (inactive)	95.9 µM (inactive)	62.5 µM (inactive)	67.5 µM (inactive)	63.1 µM (inactive)	–	58.5 µM (inactive)	71.4 µM (inactive)	> 100 µM (inactive)	33.4 µM (inactive)	> 100 µM (inactive)	> 100 µM (inactive)	67.6 µM (inactive)	62.8 µM (inactive)	> 100 µM (inactive)	> 100 µM (inactive)
C=C1C(=O)C23CC1C[C@H](OC(C)=O)C2C1(C)C(OC(C)=O)C[C@H](O)C(C)(C)[C@H]1C(O)[C@@H]3OC(C)=O (stereo not given in full)	13.1 µM (inactive)	16.4 µM (inactive)	4.13 µM (inactive)	13.3 µM (inactive)	3.79 µM (inactive)	14.9 µM (inactive)	14.8 µM (inactive)	8.09 µM (inactive)	15.5 µM (inactive)	22.1 µM (inactive)	–	3.66 µM (inactive)	16.5 µM (inactive)	1.61 µM (inactive)	2.96 µM (inactive)	13.4 µM (inactive)	3.03 µM (inactive)	7.18 µM (inactive)	18.1 µM (inactive)	21.2 µM (inactive)
